Measurements reported in ChEMBL document CHEMBL1201862, “PubChem BioAssay data set” (2004).
Active and inactive are the calls of the source.

Columns and labels:
[1] = C. albicans growth with fluconazole, confirmation, fluorescence, retest (AID 2467); assay type: functional, cell-based
[2] = NIH-3T3 fibroblast cytotoxicity, dose response, cytotoxicity control, cell-based, fluorescence, Alamar Blue, secondary assay (AID 2327); assay type: functional;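 note: NIH-3T3 mouse fibroblasts cultured with fluconazole at 8 µg/mL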
[3] = molecular target: Cytochrome P450 3A4 (Homo sapiens, UniProt P08684);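 note: CYP3A4 tested as one member of a cytochrome P450 panel screen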
[4] = molecular target: Cytochrome P450 2C9 (Homo sapiens, UniProt P11712)
[5] = molecular target: FAD-linked sulfhydryl oxidase ALR (Homo sapiens, UniProt P55789); assay: inhibitors of human ALR sulfhydryl oxidase, dose response, biochemical, H2O2 detection, luminescence, cherry-pick (AID 493248)
[6] = molecular target: Cytochrome P450 2D6 (Homo sapiens, UniProt P10635);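 note: CYP2D6 member of a cytochrome P450 panel assay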
[7] = molecular target: Cytochrome P450 2C19 (Homo sapiens, UniProt P33261); assay: Cytochrome panel assay with activity outcomes. Panel member name: p450-cyp2c19 Compounds with AC50 equal or less than 10 uM are considered active; assay type: functional; conditions: read-out: AC50
[8] = HEp-2 cell cytotoxicity, dose response, cytotoxicity control for RSV inhibitor project, HTS (AID 2410); assay type: functional; conditions: human respiratory syncytial virus
[9] = molecular target: T1, Cytochrome P450 1A2 (Homo sapiens, UniProt P05177);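 note: PubChem cytochrome P450 panel assay, CYP1A2 panel member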
T1 sequence (P05177 whole entry): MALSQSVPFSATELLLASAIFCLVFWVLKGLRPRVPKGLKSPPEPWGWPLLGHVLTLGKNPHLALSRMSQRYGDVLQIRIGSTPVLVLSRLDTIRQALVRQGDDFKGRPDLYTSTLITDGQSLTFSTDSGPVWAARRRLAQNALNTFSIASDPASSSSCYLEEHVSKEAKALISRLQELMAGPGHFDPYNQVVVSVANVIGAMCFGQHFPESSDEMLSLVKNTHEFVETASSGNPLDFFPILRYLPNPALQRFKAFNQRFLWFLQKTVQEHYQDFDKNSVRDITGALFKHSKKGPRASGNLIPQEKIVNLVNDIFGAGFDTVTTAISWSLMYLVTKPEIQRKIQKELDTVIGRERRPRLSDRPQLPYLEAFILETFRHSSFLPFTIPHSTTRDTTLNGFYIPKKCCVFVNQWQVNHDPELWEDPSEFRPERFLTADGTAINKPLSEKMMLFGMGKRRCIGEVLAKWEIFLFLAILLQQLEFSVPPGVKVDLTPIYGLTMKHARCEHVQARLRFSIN

[10] = molecular target: T2, Heat shock factor protein 1 (Mus musculus, UniProt P38532); assay: HSF1 potentiators in luciferase reporter cells, confirmation, cell-based, NIH3T3, luminescence, dose retest (AID 435004); assay type: functional;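 note: stress induced by proteasome inhibitor MG132 added 30 min after compound; luciferase reporter driven by HSF1 response element in NIH3T3 cells; actives raise luminescence as potentiators of the MG132 stress response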
T2 sequence (P38532 whole entry): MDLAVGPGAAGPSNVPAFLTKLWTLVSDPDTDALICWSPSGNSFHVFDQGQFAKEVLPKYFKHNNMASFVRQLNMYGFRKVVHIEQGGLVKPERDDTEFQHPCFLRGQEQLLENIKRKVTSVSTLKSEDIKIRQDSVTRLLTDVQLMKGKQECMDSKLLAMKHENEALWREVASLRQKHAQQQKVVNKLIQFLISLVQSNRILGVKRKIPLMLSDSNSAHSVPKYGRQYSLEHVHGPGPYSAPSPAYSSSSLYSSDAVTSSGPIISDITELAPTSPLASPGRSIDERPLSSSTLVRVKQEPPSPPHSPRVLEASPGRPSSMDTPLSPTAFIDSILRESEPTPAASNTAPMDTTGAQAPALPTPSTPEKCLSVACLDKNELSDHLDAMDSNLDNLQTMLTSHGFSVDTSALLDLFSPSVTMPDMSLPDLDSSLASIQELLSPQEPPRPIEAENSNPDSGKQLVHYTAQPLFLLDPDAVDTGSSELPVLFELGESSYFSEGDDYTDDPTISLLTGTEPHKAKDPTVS

[11] = inhibitors of intracellular T. cruzi replication, confirmation, NIH3T3 host cells, beta-gal luminescence (AID 2044); assay type: functional, cell-based;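 note: intracellular parasites grown in NIH/3T3 mouse fibroblasts as host cells; luminescent beta-galactosidase reporter signal from transgenic T. cruzi replicating inside host cells; inhibitors lower the luminescence signal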
[12] = cytotoxicity toward NIH3T3 fibroblasts, dose response, counter-screen, cell-based, ATP luminescence, mouse fibroblasts (AID 2010); assay type: functional;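 note: cells exposed to compound for about 90 hours before reading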
[13] = Luminescence Cell-Based Dose Confirmation HTS to Identify Inhibitors of Platelet Dense Granule Release. [Related pubchem assays: 1663 (Primary HTS), 1678 (Summary of Project)]; assay type: functional
[14] = molecular target: Luciferin 4-monooxygenase (Photinus pyralis, UniProt P08659); assay: firefly luciferase enzyme inhibitors, dose response, biochemical, luminescence (AID 1891)
[15] = test system: INS1; assay: beta cell apoptosis inhibitors, cytokine rescue, dose response, luminescence, retest (AID 449756); assay type: functional, cell-based; conditions: Rattus norvegicus;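 note: cell death triggered by IL-1 beta plus TNF-alpha plus IFN-gamma mixture; protective hits raise ATP signal compared with cytokine alone wells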
[16] = test system: Streptococcus; assay: Group A Streptococcus viability loss, dose response, counter-screen for streptokinase expression inhibitor project, luminescence, BacTiterGlo (AID 1915); assay type: functional, organism-based;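 note: potency for reduction of bacterial viability or growth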
[17] = molecular target: T3, Streptokinase A (Streptococcus pyogenes serotype M1, UniProt P10520); assay: S. pyogenes streptokinase expression inhibitors, potency, dose response, plasminogen activation absorbance, OD405 (AID 1914); assay type: functional, Streptococcus pyogenes M1 GAS;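 note: secreted streptokinase activity via plasminogen activation per viability signal from cell pellet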
T3 sequence (P10520 whole entry): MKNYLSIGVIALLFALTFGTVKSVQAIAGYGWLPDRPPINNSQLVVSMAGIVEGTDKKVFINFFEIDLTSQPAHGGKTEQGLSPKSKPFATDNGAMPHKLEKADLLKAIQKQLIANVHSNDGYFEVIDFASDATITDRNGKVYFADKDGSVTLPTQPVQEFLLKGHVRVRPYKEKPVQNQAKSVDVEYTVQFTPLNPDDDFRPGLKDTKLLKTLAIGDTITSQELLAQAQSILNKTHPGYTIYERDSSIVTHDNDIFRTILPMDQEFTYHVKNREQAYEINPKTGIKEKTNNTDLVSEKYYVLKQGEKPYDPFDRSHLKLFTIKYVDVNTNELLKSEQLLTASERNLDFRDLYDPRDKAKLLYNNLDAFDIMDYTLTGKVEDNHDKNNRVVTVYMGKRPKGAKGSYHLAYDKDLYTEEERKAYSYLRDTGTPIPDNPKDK

[18] = test system: Streptococcus sp. 'group A'; assay: growth inhibition of control SK(-) GAS strain, dose response, counter-screen for streptokinase expression inhibitor project, luminescence, kanamycin, BacTiterGlo, confirmation (AID 1900); assay type: functional, organism-based

Chain of Cytochrome P450 2C19 (P33261 whole entry): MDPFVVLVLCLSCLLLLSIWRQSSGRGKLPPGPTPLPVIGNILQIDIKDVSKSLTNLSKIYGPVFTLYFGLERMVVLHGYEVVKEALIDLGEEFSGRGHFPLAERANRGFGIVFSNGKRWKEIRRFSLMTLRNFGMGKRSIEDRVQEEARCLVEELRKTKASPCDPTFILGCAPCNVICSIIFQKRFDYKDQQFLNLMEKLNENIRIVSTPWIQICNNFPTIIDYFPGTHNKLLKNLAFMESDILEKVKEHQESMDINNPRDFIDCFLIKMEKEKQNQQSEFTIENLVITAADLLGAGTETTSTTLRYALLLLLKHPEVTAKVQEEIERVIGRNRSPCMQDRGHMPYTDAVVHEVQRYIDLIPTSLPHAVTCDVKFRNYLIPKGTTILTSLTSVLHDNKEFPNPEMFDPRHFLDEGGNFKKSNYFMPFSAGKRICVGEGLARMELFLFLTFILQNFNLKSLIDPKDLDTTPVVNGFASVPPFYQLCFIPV
Chain of Cytochrome P450 3A4 (P08684 whole entry): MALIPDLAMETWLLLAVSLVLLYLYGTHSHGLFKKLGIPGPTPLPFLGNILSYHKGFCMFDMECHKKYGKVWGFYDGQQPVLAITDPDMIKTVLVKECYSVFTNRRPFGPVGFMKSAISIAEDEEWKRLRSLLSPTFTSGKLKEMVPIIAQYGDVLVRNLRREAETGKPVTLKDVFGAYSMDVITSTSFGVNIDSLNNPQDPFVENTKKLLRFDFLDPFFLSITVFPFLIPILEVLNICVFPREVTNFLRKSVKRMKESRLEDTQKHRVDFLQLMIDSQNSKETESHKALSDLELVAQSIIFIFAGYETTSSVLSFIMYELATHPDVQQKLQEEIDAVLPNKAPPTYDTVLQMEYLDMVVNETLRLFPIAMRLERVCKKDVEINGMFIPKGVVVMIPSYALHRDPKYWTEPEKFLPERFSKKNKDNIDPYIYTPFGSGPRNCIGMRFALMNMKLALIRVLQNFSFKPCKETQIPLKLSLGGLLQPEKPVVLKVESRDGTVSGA
Chain of Cytochrome P450 2D6 (P10635 whole entry): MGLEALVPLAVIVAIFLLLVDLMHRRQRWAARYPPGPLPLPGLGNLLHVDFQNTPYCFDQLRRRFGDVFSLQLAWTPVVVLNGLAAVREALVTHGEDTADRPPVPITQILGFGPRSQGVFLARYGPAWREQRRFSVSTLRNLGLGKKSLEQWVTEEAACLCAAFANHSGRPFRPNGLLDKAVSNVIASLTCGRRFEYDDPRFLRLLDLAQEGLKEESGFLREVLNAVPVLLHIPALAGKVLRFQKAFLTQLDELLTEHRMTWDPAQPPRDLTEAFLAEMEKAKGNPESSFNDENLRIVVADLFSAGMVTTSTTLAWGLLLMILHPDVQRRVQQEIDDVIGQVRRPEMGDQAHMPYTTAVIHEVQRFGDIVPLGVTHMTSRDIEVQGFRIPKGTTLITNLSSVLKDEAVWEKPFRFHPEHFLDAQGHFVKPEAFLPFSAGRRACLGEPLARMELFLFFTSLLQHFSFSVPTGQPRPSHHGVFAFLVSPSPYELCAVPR
Chain of FAD-linked sulfhydryl oxidase ALR (P55789 whole entry): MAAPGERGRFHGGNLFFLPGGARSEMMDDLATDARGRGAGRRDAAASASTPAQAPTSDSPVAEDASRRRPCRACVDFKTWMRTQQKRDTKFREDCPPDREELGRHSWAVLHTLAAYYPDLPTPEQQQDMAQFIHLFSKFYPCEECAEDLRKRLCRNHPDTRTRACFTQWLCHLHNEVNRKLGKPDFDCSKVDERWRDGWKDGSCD
Chain of Cytochrome P450 2C9 (P11712 whole entry): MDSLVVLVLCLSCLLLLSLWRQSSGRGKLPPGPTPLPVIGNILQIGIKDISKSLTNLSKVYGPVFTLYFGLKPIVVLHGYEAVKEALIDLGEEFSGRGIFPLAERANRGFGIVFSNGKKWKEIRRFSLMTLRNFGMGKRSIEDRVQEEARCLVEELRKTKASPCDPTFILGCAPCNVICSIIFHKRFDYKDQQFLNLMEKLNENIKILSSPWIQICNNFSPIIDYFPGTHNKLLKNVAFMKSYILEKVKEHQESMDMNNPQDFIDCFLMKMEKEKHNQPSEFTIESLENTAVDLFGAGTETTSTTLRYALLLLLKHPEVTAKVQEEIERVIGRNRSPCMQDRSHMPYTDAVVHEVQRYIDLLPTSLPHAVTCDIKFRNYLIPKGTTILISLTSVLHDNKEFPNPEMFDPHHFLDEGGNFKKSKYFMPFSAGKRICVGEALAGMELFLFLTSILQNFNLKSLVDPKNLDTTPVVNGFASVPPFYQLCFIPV
Chain of Luciferin 4-monooxygenase (P08659 whole entry): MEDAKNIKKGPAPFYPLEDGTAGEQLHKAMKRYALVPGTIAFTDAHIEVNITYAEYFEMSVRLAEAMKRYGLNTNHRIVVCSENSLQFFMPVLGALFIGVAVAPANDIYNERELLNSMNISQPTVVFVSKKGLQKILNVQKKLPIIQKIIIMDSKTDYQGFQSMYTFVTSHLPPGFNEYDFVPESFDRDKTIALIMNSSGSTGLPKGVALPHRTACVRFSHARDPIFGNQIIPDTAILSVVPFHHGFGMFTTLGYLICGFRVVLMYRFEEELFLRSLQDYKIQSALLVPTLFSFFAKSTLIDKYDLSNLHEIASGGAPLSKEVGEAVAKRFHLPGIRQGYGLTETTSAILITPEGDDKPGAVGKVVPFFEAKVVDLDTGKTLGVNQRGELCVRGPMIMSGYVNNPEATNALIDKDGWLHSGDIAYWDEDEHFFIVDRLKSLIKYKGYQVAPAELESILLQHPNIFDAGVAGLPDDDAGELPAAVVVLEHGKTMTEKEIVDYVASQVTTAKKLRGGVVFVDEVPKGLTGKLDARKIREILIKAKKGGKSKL

O=C(CN1CCN(S(=O)(=O)c2ccccc2)CC1)Nc1ccc2c(c1)CCC2
EC50 [1]: > 38 µM (not active) | EC50 [2]: > 150 µM (inactive)

NC(=O)NC(=O)CSc1nnc(-c2ccco2)n1Cc1ccccc1
AC50 [3]: 25.1 µM (inconclusive) | AC50 [4]: 12.6 µM (inconclusive)

Cc1cc(O)nc2c(C)cc(S(=O)(=O)Nc3ccc(O)cc3)cc12
AC50 [5]: 1.3 µM (active)

COc1ccccc1-c1ccc2ncnc(NCc3cnc(C)cn3)c2c1
AC50 [3]: 10 µM (inconclusive) | AC50 [6]: 39.8 µM (inconclusive) | AC50 [7]: 39.8 µM (inconclusive)

Cc1oncc1-c1csc(-c2ccccc2)n1
CC50 [8]: 36.5 µM (active)

COc1ccc(OC)c(C(c2nnnn2C2CCCC2)N2CCc3ccccc3C2)c1 (stereo unspecified)
CC50 [8]: 24 µM (active)

CCCn1c(=N)n(CC(=O)c2ccco2)c2ccccc21
AC50 [3]: 35.5 µM (inconclusive) | AC50 [9]: 10 µM (inconclusive)

Cc1[nH]c2ccccc2c1/C=N/O
AC50 [5]: 20.2 µM (active)

NC(=O)C1=C[C@@H](c2csc3ccccc23)C[C@@H](OCc2ccc(CO)cc2)O1
CC50 [8]: 15.5 µM (active)

Cc1ccc(S(=O)(=O)NNC(=O)c2ccc(NC(=O)C3CC3)cc2)cc1
EC50 [1]: 12.7 µM (active) | EC50 [2]: > 150 µM (inactive)

CNC(=O)[C@H]1O[C@H](n2cnc3c(NCc4cccc(I)c4)ncnc32)[C@@H](O)[C@@H]1O
AC50 [3]: 31.6 µM (inconclusive)

COc1ccc(-c2cc(CCCC(=O)NCCc3ccc(OC)cc3OC)no2)cc1
EC50 [10]: > 260 µM (inactive) | AC50 [9]: 0.562 µM (active) | AC50 [6]: 1.12 µM (active) | AC50 [7]: 1.41 µM (active) | AC50 [4]: 0.562 µM (active)

Cc1ccc(/C=C/c2onc(C)c2S(=O)(=O)N2CCC(C(=O)N3CCCCC3)CC2)cc1
CC50 [8]: > 50 µM (active)

CCOc1cc(S(=O)(=O)NCc2ccccc2)c(OCC)cc1-n1cnnn1
EC50 [1]: 3.34 µM (active) | EC50 [2]: > 150 µM (inconclusive)

COc1nc(Oc2ccc(/C=N/O)cc2)nc(N(C)C)n1
AC50 [5]: 2.99 µM (active) | AC50 [6]: 22.4 µM (inconclusive) | AC50 [7]: 17.8 µM (inconclusive)

CCc1ccc(NC(=O)CN2C(=O)CSC2=O)cc1
AC50 [5]: 1.2 µM (active)

CCN(CC)c1cccc(OC2=NS(=O)(=O)c3ccccc32)c1
EC50 [1]: 5.06 µM (active) | EC50 [2]: > 150 µM (inactive)

CCOc1ccc2nc(O)c(O)nc2c1
CC50 [8]: 45.8 µM (active)

CS(=O)(=O)N(CC(=O)Nc1c(F)cccc1F)c1ccc(C23CC4CC(CC(C4)C2)C3)cc1
EC50 [11]: 2.25 µM (active) | EC50 [12]: 10.6 µM (active) | AC50 [3]: 15.8 µM (inconclusive) | AC50 [6]: 4.47 µM (inconclusive)

COc1ccc(N2CCN(C(CNC(C)=O)c3ccc4c(c3)OCO4)CC2)cc1 (stereo unspecified)
AC50 [5]: 4.58 µM (active)

c1ccc2c(C3=NN=C(NC4CC4)SC3)c[nH]c2c1
EC50 [13]: 20.2 µM (active) | EC50 [10]: > 260 µM (inactive) | EC50 [14]: > 112 µM (not active)

N=c1ccn(Cc2ccc(Cl)cc2Cl)cc1
AC50 [15]: 7.25 µM (active)

COc1ccc(CN(C(=O)CSc2nnc(-c3ccccc3F)o2)c2ccc(F)cc2)cc1
CC50 [8]: 23.1 µM (active)

COc1ccccc1N1CCN(Cc2nc(N)nc(Nc3ccc(C)c(Cl)c3)n2)CC1
EC50 [16]: 20.4 µM (active) | EC50 [17]: > 150 µM (inconclusive) | CC50 [8]: 19.6 µM (active) | EC50 [18]: 10.7 µM (active)

CCN(CCNC(=O)c1ccc(C#N)cc1)c1cccc(C)c1
AC50 [5]: 1.75 µM (active)

NC(=NO)c1cn(Cc2ccccc2Cl)c2ccccc12
AC50 [5]: 0.488 µM (active)

COc1ccc(Br)cc1/C=N/Nc1ccc(Cl)c(C(=O)O)c1
AC50 [5]: 6.26 µM (active)

CC(C)[C@H](NC(=O)OC(C)(C)C)c1nnc(SCC(=O)Nc2ccc(Br)cc2)o1
EC50 [10]: 98.6 µM (active)

N#Cc1cccc(NC(=O)N2CC[C@@]3(CCCN(C(=O)c4ccco4)C3)C2)c1
AC50 [3]: 20 µM (inconclusive)

O=C(Nc1ccc(O)c(-c2nc3ccccc3o2)c1)C1(c2ccc(Cl)cc2)CCCC1
EC50 [10]: > 260 µM (inactive)

CCc1cc2c(nc1CC)CCN(CC/C(C)=N/OC)C2
AC50 [3]: 3.16 µM (inconclusive) | AC50 [6]: 3.16 µM (inconclusive)

CCN1CCCC1CNC(=O)C1c2cc(OC)c(OC)cc2C(=O)N(C)C1c1cccnc1 (stereo unspecified)
AC50 [3]: 5.62 µM (inconclusive) | AC50 [7]: 1.12 µM (inconclusive) | AC50 [4]: 1.78 µM (inconclusive)

Cc1ccc(S(=O)(=O)N2CCN(C(=O)CSc3ccc(Cl)cc3)CC2)cc1
EC50 [10]: > 260 µM (inactive)

CC(C)(C)C1CCC(OC(=O)C[N+]2(C)CCCCC2)CC1 (stereo unspecified)
EC50 [1]: > 38 µM (not active) | EC50 [2]: 18.1 µM (active)

CCCCC(=O)OCc1cn(-c2ccc(Cl)cc2)nn1
AC50 [3]: 39.8 µM (inconclusive) | AC50 [6]: 25.1 µM (inconclusive) | AC50 [7]: 2.24 µM (inconclusive)

CC1(c2ccccc2)CC(C)(C)N(C(=O)CSc2nnc(N)s2)c2ccccc21 (stereo unspecified)
CC50 [8]: 22.9 µM (active)

COc1ccc(Br)cc1C(=O)Nc1ccc(O)cc1
AC50 [5]: 2.75 µM (active)

Cc1ccc(O)c(NC(=O)C2CCCN2C(=O)OCc2ccccc2)c1 (stereo unspecified)
AC50 [5]: 8.89 µM (active)

CC(C)(Oc1ccc(Cl)cc1)C(=O)Nc1ccc2oc(-c3ccncc3)nc2c1
EC50 [10]: > 260 µM (inactive)

O=C(NCCc1ccccc1)C(=O)NCC1(c2ccccc2)CCCC1
AC50 [3]: 3.16 µM (inconclusive) | AC50 [7]: 39.8 µM (inconclusive)

Cc1cc(Cl)ccc1NNC(=O)c1snnc1C
EC50 [1]: 1.59 µM (active) | EC50 [2]: 16.8 µM (inconclusive)
